Experimental findings from patent publication US7282494B2, “Heteroaryl diazacycloalkanes, their preparation and use” (Neurosearch A/S, priority 1909, dated 2007) are described below.

By melting point is commonly meant the temperature of the solid-liquid transition. By pIC50 is commonly meant the negative decadic logarithm of the IC50, by convention in mol/L.

The target in data set [1] is nAChR formed by the α7 subunit isoform (Rattus norvegicus, UniProt Q05941). Kind of data set: In vitro inhibition of 3H-α-bungarotoxine binding rat brain (Assay III).
The target in data set [2] is T1, neuronal nicotinic receptors (3H-epibatidine binding sites; high affinity site α4β2 subtype) (Rattus norvegicus, UniProt P09483+P12390). Description: biochemical.
The target of data set [3] is T1, neuronal nicotinic receptors (3H-epibatidine binding sites; high affinity site α4β2 subtype).
Where [4] appears, read: 3H-α-bungarotoxine 2 nM, cerebral cortices from male Wistar rats, 2 h at 37° C., read-out: Assay III IC50.

pIC50: −log10 of the molar value. Counter-ions that a name gives are not always drawn. Like-named read-outs stand apart in the source and are kept apart here.

T1 sequence (P09483 31-630): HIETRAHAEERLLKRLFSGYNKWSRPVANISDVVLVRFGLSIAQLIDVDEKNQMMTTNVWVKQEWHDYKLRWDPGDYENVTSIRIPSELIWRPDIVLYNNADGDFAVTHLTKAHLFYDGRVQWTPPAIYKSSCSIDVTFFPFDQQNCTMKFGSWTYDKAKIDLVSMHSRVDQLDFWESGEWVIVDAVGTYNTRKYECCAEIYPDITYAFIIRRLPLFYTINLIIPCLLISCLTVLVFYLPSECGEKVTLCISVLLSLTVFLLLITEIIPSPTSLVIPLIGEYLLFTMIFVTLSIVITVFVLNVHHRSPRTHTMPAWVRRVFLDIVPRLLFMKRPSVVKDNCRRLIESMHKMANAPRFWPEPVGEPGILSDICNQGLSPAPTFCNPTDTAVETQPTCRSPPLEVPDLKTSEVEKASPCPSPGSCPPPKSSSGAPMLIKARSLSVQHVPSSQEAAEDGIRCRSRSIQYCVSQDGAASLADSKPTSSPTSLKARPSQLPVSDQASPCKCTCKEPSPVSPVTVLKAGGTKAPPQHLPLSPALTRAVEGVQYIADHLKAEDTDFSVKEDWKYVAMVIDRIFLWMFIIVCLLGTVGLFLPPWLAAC
T1 sequence (P12390 25-500): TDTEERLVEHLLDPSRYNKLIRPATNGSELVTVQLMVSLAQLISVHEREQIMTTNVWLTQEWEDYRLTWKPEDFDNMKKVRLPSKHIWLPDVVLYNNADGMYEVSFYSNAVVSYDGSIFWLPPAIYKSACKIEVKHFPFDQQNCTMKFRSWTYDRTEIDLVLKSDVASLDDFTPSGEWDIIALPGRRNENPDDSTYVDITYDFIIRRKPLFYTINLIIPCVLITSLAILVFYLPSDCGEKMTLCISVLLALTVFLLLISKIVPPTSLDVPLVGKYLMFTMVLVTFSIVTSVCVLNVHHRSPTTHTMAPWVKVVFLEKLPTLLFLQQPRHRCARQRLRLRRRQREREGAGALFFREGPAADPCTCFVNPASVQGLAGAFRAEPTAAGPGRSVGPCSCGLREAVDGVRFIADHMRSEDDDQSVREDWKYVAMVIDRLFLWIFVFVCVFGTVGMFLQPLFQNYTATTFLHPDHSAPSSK
nAChR formed by the α7 subunit isoform, sequence (Q05941 23-502): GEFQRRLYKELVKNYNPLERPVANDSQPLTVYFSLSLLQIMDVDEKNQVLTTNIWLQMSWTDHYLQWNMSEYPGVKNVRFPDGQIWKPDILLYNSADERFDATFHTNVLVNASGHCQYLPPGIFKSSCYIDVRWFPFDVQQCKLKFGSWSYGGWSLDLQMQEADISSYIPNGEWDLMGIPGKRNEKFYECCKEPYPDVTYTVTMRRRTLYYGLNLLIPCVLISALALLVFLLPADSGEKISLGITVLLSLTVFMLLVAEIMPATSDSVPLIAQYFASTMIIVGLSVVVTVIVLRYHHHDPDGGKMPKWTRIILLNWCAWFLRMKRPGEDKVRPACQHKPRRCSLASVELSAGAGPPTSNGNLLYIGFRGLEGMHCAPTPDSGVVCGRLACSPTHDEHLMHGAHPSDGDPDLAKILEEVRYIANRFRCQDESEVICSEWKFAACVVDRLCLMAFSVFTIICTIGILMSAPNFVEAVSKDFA

With `CCCCCOc1cncc(N2CCN(C)CC2)c1` (as salt: fumaric acid salt), the melting point fell in the range of 113.6 to 115.1 °C. Same read-out and setting: the value for `C=COc1cc(N2CCCNCC2)cnc1Br` (as salt: fumaric acid salt) was 128.6 °C. `C=COc1cc(N2CCCNCC2)cnc1Cl` (as salt: fumaric acid salt) had a melting point of 183 to 185 °C. On the same count and under the same terms, the value for `Ic1cncc(N2CCCNCC2)c1` (as salt: fumaric acid salt) was 178 to 180 °C; that for `COc1cc(N2CCCNCC2)cnc1Br` (as salt: fumaric acid salt) was 210 to 212 °C.

The compound `CCOc1cncc(N2CCCN(c3cncc(OCC)c3)CC2)c1` (as salt: fumaric acid salt) gave a melting point of 155 to 156 °C. The same measure, in the same setting: the value for `C=COc1cncc(N2CCCN(c3cncc(OC=C)c3)CC2)c1` (as salt: fumaric acid salt) was 157 to 158.5 °C. Take `c1ncc(N2CCCNCC2)cc1N1CCC1` (as salt: fumaric acid salt): the melting point lay in the range of 143.5 to 146.9 °C. Consider `Clc1cncc(N2CCCNCCC2)c1` (as salt: fumaric acid salt), for which the melting point was in the range of 186 to 187 °C.

Compound `Brc1cncc(N2CCCNCCC2)c1` (as salt: fumaric acid salt) registered a melting point of 151 to 153 °C. The same measure, in the same setting: the value for `Brc1cc(N2CCCNCC2)cnc1Br` (as salt: fumaric acid salt) [1-(5,6-Dibromo-3-pyridyl)-homopiperazine] was 192.1 to 193.2 °C. On the same count and under the same terms, the value for `Clc1cc(N2CCCNCC2)cnc1Cl` (as salt: fumaric acid salt) [1-(5,6-Dichloro-3-pyridyl)-homopiperazine] was 172.2 to 173.4 °C; that for `Clc1ncc(N2CCCNCC2)cc1Br` (as salt: fumaric acid salt) [1-(5-Bromo-6-chloro-3-pyridyl)-homopiperazine] was 188.2 to 189.2 °C; that for `C(#Cc1cncc(N2CCCNCC2)c1)c1ccccc1` (as salt: fumaric acid salt) [1-(5-Phenylacetylenyl-3-pyridyl)-homopiperazine] was 155.2 to 157.8 °C. On the same count and under the same terms, next, `Brc1ccc(N2CCCNCC2)nn1` (as salt: fumaric acid salt) [1-(6-Bromo-3-pyridazinyl)-homopiperazine]: 169 to 171 °C. In the case of `Clc1cc(N2CCCNCC2)cnc1Br` (as salt: fumaric acid salt) [1-(6-Bromo-5-chloro-3-pyridyl)-homopiperazine], the melting point was 213 to 216 °C. On the same count and under the same terms, the value for `C=CC(C)Oc1cncc(N2CCCNCC2)c1` (stereo not shown) (as salt: fumaric acid salt) [1-[5-(1-Methyl-1-prop-2-en-oxy)-3-pyridyl]-homopiperazine] was 129.5 to 133.6 °C; that for `CCC(CC)COc1cncc(N2CCCNCC2)c1` (as salt: fumaric acid salt) [1-[5-(2-Ethyl-1-butoxy)-3-pyridyl]-homopiperazine] was 113.7 to 115.9 °C; that for `c1ncc(N2CCCNCC2)cc1OCC1CCC1` (as salt: fumaric acid salt) [1-[5-(Cyclobutylmethoxy)-3-pyridyl]-homopiperazine] was 158.9 to 159.9 °C. `CCCC=CCOc1cncc(N2CCCNCC2)c1` (as salt: fumaric acid salt) [1-[5-(Hex-2-en-ox)-3-pyridyl]-homopiperazine] had a melting point of 126.8 to 130.2 °C. The same measure, in the same setting: the value for `CCCCN(C)c1cncc(N2CCCNCC2)c1` (as salt: fumaric acid salt) [1-[5-(N-Butyl-N-methylamino)-3-pyridyl]homopiperazine] was 140.5 to 141.8 °C; that for `c1ncc(N2CCCNCC2)cc1N1CCCC1` (as salt: fumaric acid salt) [1-[5-(N-pyrrolidinyl)-3-pyridyl]-homopiperazine] was 141.5 to 143 °C.

`Brc1cc(N2CCCNCC2)cnc1Br` [1-(5,6-Dibromo-3-pyridyl)-homopiperazine]: the pIC50 in data set [1] (setting [4]) was 5.52; in data set [2], 9.00. Taken in the same sequence, the figures for `Clc1cc(N2CCCNCC2)cnc1Cl` [1-(5,6-Dichloro-3-pyridyl)-homopiperazine] were > 5.52 and 8.70. In the same order, the values of `Clc1ncc(N2CCCNCC2)cc1Br` [1-(5-Bromo-6-chloro-3-pyridyl)-homopiperazine] are > 5.52 and 9.00. For `C=CCN1CCCN(c2cncc(OCC)c2)CC1` [1-(5-Ethoxy-3-pyridyl)-4-(prop-2-en-1-yl-)-homopiperazine], the pIC50 in data set [1] is < 4.52. Still for that read-out and setting: next, `CCOc1cncc(N2CCCN(CC)CC2)c1` [1-(5-Ethoxy-3-pyridyl)-4-ethyl-homopiperazine]: < 4.52. Turning to `C(#Cc1cncc(N2CCCNCC2)c1)c1ccccc1` [1-(5-Phenylacetylenyl-3-pyridyl)-homopiperazine], the pIC50 is 4.96 in data set [1] (setting [4]) and 8.30 in data set [2]. In the same order, the values of `Brc1ccc(N2CCCNCC2)nn1` [1-(6-Bromo-3-pyridazinyl)-homopiperazine] are 5.82 and 7.15. In the same order, the values of `Clc1cc(N2CCCNCC2)cnc1Br` [1-(6-Bromo-5-chloro-3-pyridyl)-homopiperazine] are > 5.52 and 8.70.

Take `C=CC(C)Oc1cncc(N2CCCNCC2)c1` (stereo not shown) [1-[5-(1-Methyl-1-prop-2-en-oxy)-3-pyridyl]-homopiperazine]: the pIC50 in data set [1] (setting [4]) was 4.96; in data set [2], 7.28.

Take `CCC(CC)COc1cncc(N2CCCNCC2)c1` [1-[5-(2-Ethyl-1-butoxy)-3-pyridyl]-homopiperazine]: the pIC50 in data set [1] (setting [4]) was < 4.52; in data set [2], 7.89.

As to `CC(C)=COc1cncc(N2CCCNCC2)c1` [1-[5-(2-Methyl-1-prop-1-en-oxy)-3-pridyl]-homopiperazine], the values for the pIC50 in data set [1] (setting [4]) and in data set [3] were 4.07 and 7.70, respectively. With `CCCCOc1cncc(N2CCCNCCC2)c1` [1-[5-(Butoxy)-3-pyridyl]-1,5-diazacyclooctane], the pIC50 in data set [2] was 8.52. As to `c1ncc(N2CCCNCC2)cc1OCC1CCC1` [1-[5-(Cyclobutylmethoxy)-3-pyridyl]-homopiperazine], the pIC50 in data set [1] (setting [4]) is < 4.52; in data set [2] it was 8.40. In the same order, the values of `CCCC=CCOc1cncc(N2CCCNCC2)c1` [1-[5-(Hex-2-en-ox)-3-pyridyl]-homopiperazine] are 4.33 and 8.10. With `c1ncc(N2CCCNCC2)cc1N1CCCC1` [1-[5-(N-pyrrolidinyl)-3-pyridyl]-homopiperazine], the pIC50 in data set [1] (setting [4]) is 5.30; in data set [2], 7.40.

In turn, `CC1OC1Oc1cncc(N2CCCNCC2)c1` (stereo not shown) [1-[5-(Propyl-1,2-epoxy-1-oxy)-3-pyridyl]-homopiperazine] showed a melting point of 135.2 to 139 °C. In addition, the pIC50 in data set [1] (setting [4]) was 4.24. This compound also showed a pIC50 in data set [2] of 7.40.
